Among the test systems are 786-0 renal; BT-549 breast; EKVX NSCLC; HL-60(TB) leukemia; K-562 leukemia; M14 melanoma; MCF7 breast; OVCAR-3 ovarian; UACC-257 melanoma; MALME-3M melanoma.
Common to all, as to experiment: DTP human tumour cell line panel, 48 h

The source of these data is PubChem BioAssay (NCI).

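Dose response: 5 concentrations. Exposure: 48 h. Format: 96-well plates. Endpoint: linear interpolation; highest concentration if not reached. Here, GI50 denotes the concentration required for 50% inhibition of growth. TGI marks complete inhibition of growth.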

For orientation: TGI means the concentration at which net growth stops. Low readings indicate more potent growth arrest, high ones less potent growth arrest. Turning to `CCCCCCCCCCCCCCCCOC[C@@H](COC(c1ccccc1)(c1ccccc1)c1ccccc1)O[P+](=S)OC` (stereo partly specified), the TGI in the assay with 786-0 renal amounted to 19.1 µM; in the assay with BT-549 breast it was 16.7 µM; with EKVX NSCLC, 31.5 µM; with HL-60(TB) leukemia, 36 µM; in the assay with K-562 leukemia it was 41.8 µM; in the assay with M14 melanoma, 14.5 µM. In addition, the TGI worked out at 31 µM with MCF7 breast, 31.8 µM in the assay on OVCAR-3 ovarian and 26.5 µM in the assay on UACC-257 melanoma.
Regarding `CC(=O)N=C1N(/C=C2\C(=O)Oc3ccccc3C2=O)C(=O)/C(=C/c2ccc(Cl)cc2Cl)N1C`, the concentration for total growth inhibition (TGI) in the assay on 786-0 renal was more than 100 µM; with BT-549 breast, 62 µM; in the assay with EKVX NSCLC, more than 100 µM; in the assay with HL-60(TB) leukemia it was more than 100 µM; in the assay on K-562 leukemia, more than 100 µM; in the assay on M14 melanoma, more than 100 µM. The total growth inhibition concentration (TGI) in the assay on MALME-3M melanoma, in the assay with MCF7 breast, in the assay on OVCAR-3 ovarian and in the assay with UACC-257 melanoma was more than 100 µM throughout.
As to `CCOP(=O)(OCC)C(N)c1ccc(Cl)cc1` (stereo unspecified), the total growth inhibition concentration (TGI) in the assay with 786-0 renal, in the assay with BT-549 breast, with EKVX NSCLC, in the assay on HL-60(TB) leukemia, with M14 melanoma and with MALME-3M melanoma was more than 100 µM in each case. The concentration for total growth inhibition (TGI) with MCF7 breast and with UACC-257 melanoma was more than 100 µM in each case.
With `CC1=C(C(=O)c2ccccc2)C23C(=O)N(c4ccccc4)C(=O)C2=C(O)C=CC3(O)N1` (stereo unspecified), the TGI in the assay on 786-0 renal is more than 100 µM; in the assay with BT-549 breast, 49.2 µM; in the assay with EKVX NSCLC, more than 100 µM; with HL-60(TB) leukemia, 50.7 µM; with K-562 leukemia, 75.1 µM; with M14 melanoma, more than 100 µM. Also, the TGI in the assay on MALME-3M melanoma is 65.1 µM; in the assay on MCF7 breast, more than 100 µM; with OVCAR-3 ovarian it was 58.9 µM; in the assay on UACC-257 melanoma, more than 100 µM.
For the compound `COc1c(O)cc2c(c1O)C(=O)/C(=C/c1ccc(O)cc1)CO2`, the TGI is 75.5 µM in the assay on 786-0 renal; more than 100 µM with BT-549 breast; 71.9 µM in the assay on EKVX NSCLC; more than 100 µM in the assay with HL-60(TB) leukemia; 95.2 µM with K-562 leukemia; 61.1 µM in the assay on M14 melanoma. Also, the TGI with MALME-3M melanoma is 96.4 µM; with MCF7 breast, more than 100 µM; in the assay on OVCAR-3 ovarian, 55.5 µM; in the assay with UACC-257 melanoma it was more than 100 µM.
Take `Cc1ccc(NC(=O)CSc2nc(=O)[nH]c3nc[nH]c23)cc1`: the TGI in the assay on 786-0 renal, in the assay with BT-549 breast, in the assay with EKVX NSCLC, in the assay with HL-60(TB) leukemia, in the assay on K-562 leukemia and in the assay with M14 melanoma was more than 100 µM throughout. Further, the TGI in the assay on MALME-3M melanoma, with MCF7 breast, with OVCAR-3 ovarian and in the assay with UACC-257 melanoma was more than 100 µM each time.
Consider `CC(=O)OC1COC(Nc2nc(NCc3ccccc3)n(C)c(=O)c2N=O)C(OC(C)=O)C1OC(C)=O` (stereo unspecified), for which the TGI with 786-0 renal, in the assay with BT-549 breast, with EKVX NSCLC, with HL-60(TB) leukemia, with K-562 leukemia and with M14 melanoma was more than 10 µM each time. Further, the concentration for total growth inhibition (TGI) in the assay on MALME-3M melanoma, with MCF7 breast, with OVCAR-3 ovarian and with UACC-257 melanoma was more than 10 µM in each case.
`Cc1ccc(/C(O)=C/c2nc3ccccc3s/c2=N/CS(=O)(=O)c2ccc(C)cc2)cc1`: the TGI in the assay on 786-0 renal, with BT-549 breast, with HL-60(TB) leukemia, in the assay on K-562 leukemia, with M14 melanoma and with MALME-3M melanoma was more than 10 µM in each case. The TGI with MCF7 breast, in the assay with OVCAR-3 ovarian and in the assay with UACC-257 melanoma was more than 10 µM throughout.
Take `NC1=CN2c3ccccc3N(CC(=O)O)C2C=C1` (stereo unspecified): the TGI in the assay on 786-0 renal, in the assay with BT-549 breast, in the assay with EKVX NSCLC, with HL-60(TB) leukemia, in the assay with K-562 leukemia and in the assay on M14 melanoma was more than 100 µM throughout. Besides, the TGI with MALME-3M melanoma, in the assay on MCF7 breast, with OVCAR-3 ovarian and with UACC-257 melanoma was more than 100 µM each time.
Take `COC(=O)c1cnc(Cl)cn1`: the TGI in the assay with 786-0 renal, in the assay on BT-549 breast, with EKVX NSCLC, in the assay on HL-60(TB) leukemia, in the assay on K-562 leukemia and in the assay with M14 melanoma was more than 100 µM each time. Moreover, the values for the TGI in the assay on MALME-3M melanoma, in the assay with MCF7 breast and in the assay on UACC-257 melanoma were more than 100 µM, 95.5 µM and more than 100 µM, respectively.
The GI50 is the concentration giving 50% growth inhibition. For the compound `Cc1ccc(N(CC(=O)Nc2ccc(S(=O)(=O)N3CCC(N4CCCC4)CC3)cc2)S(=O)(=O)c2ccc(Cl)cc2)cc1`, the GI50 was 1.68 µM with BT-549 breast; 1.69 µM in the assay with EKVX NSCLC; 1.73 µM in the assay with HL-60(TB) leukemia; 0.566 µM in the assay on K-562 leukemia; 1.71 µM in the assay with M14 melanoma; 1.6 µM in the assay on MCF7 breast. Further, the GI50 in the assay on OVCAR-3 ovarian is 1.77 µM. Besides, the TGI with BT-549 breast is 3.31 µM; in the assay on EKVX NSCLC, 3.82 µM; in the assay on HL-60(TB) leukemia, 4.33 µM; in the assay with K-562 leukemia, 2.75 µM; in the assay on M14 melanoma it was 3.39 µM; in the assay with MCF7 breast it was 3.6 µM. In the assay with OVCAR-3 ovarian, this compound showed a TGI of 3.49 µM.
As for `O=C1OC(=O)c2cc(S(=O)(=O)c3ccc4c(c3)C(=O)OC4=O)ccc21`, the TGI in the assay on 786-0 renal, in the assay with BT-549 breast, in the assay with EKVX NSCLC, in the assay with K-562 leukemia, with M14 melanoma and in the assay on MALME-3M melanoma was more than 100 µM throughout. In addition, the TGI in the assay with MCF7 breast, with OVCAR-3 ovarian and in the assay with UACC-257 melanoma was more than 100 µM each time.
As for `CC1=Nc2sc3c(c2C2=NCCN12)CCCC3`, the TGI is 46 µM with 786-0 renal; 43.4 µM with BT-549 breast; 94.1 µM with EKVX NSCLC; 61 µM with HL-60(TB) leukemia; more than 100 µM with K-562 leukemia; 71.3 µM in the assay with MALME-3M melanoma. Besides, the TGI stood at 48.1 µM with MCF7 breast, 66.8 µM in the assay with OVCAR-3 ovarian and 48.5 µM in the assay on UACC-257 melanoma.
On to `COc1ccc(N2C(=O)C3c4[nH]c5ccc(F)cc5c4C4CCC(c5ccccc5)CC4C3C2=O)cc1` (stereo unspecified), for which the concentration for total growth inhibition (TGI) in the assay on 786-0 renal is 12.1 µM; in the assay on BT-549 breast it was 40.7 µM; in the assay with EKVX NSCLC, 63 µM; in the assay with K-562 leukemia it was 14.2 µM; in the assay on M14 melanoma it was 45.1 µM; in the assay with MALME-3M melanoma it was 33.3 µM. Further, the TGI in the assay with MCF7 breast is more than 100 µM; in the assay with OVCAR-3 ovarian, more than 100 µM; in the assay with UACC-257 melanoma, 97 µM.
